The results in this text go back to ChEMBL document CHEMBL2073922, “Cloning and characterization of the gene encoding the mouse peptide transporter PEPT2” (Biochem Biophys Res Commun, 2000).

Holding throughout (assay type): functional, cell-based
Holding throughout (conditions): Oocyte

For experiment [1], the target named is T1, Solute carrier family 15 member 2 (Mus musculus) (UniProt Q9ES07).
T1 sequence (whole entry): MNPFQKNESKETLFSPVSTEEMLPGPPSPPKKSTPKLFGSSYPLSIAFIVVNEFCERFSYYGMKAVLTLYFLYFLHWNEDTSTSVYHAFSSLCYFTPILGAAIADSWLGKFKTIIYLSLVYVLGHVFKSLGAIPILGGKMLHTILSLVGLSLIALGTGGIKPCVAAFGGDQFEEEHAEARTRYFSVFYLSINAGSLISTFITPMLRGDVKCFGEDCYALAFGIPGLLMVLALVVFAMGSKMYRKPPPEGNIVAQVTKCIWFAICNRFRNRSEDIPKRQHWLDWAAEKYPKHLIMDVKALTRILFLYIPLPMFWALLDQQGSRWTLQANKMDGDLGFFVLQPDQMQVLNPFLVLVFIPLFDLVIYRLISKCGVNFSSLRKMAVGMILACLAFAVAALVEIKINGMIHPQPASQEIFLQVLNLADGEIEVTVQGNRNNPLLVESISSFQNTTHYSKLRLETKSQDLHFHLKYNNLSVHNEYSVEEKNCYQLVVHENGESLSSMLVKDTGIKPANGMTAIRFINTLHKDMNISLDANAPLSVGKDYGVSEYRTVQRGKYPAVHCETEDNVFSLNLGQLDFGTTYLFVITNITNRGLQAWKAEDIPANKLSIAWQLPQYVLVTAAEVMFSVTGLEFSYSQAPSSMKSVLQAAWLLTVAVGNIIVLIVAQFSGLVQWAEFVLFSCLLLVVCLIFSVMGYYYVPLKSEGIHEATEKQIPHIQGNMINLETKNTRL
Kind of experiment: (§1) TP_TRANSPORTER: uptake (electrogenesis) in Xenopus laevis oocytes.

For experiment [2], the target named is T1, Solute carrier family 15 member 2 (Mus musculus). Kind of experiment: TP_TRANSPORTER: uptake in Xenopus laevis oocytes.
The target in experiment [3] is Solute carrier family 15 member 2 (Mus musculus) (UniProt Q9ES07). The description is as §1. This is another data set of the same source.

Take `NCCC(=O)N[C@@H](Cc1c[nH]cn1)C(=O)O`: the Activity entry in experiment [1] is “substrate [+]”.

On to `N[C@@H](CS)C(=O)NCC(=O)O`, for which, in experiment [1], the Activity result is “substrate [+]”.

As for `NC(=O)CC[C@H](NC(=O)[C@@H](N)Cc1ccccc1)C(=O)O`, the Activity entry in experiment [2] is “substrate [+]”.

`NC(N)=NCCC[C@H](NC(=O)[C@@H](N)Cc1ccc(O)cc1)C(=O)O`: in experiment [1], the Activity entry is “substrate [+]”.

On to BETA-ENDORPHIN, for which, in experiment [3], the Activity result is “substrate [+]”.
